From patent publication US20250171437A1 (Agios Pharmaceuticals,Inc., priority 2022, published 2025)

Target: T1, human PAH with the R408W mutation (A375 R408W cells) (Homo sapiens, UniProt P00439, R408W)
T1 construct: expressed in transfected cells
T1 sequence (P00439 1-452 R408W): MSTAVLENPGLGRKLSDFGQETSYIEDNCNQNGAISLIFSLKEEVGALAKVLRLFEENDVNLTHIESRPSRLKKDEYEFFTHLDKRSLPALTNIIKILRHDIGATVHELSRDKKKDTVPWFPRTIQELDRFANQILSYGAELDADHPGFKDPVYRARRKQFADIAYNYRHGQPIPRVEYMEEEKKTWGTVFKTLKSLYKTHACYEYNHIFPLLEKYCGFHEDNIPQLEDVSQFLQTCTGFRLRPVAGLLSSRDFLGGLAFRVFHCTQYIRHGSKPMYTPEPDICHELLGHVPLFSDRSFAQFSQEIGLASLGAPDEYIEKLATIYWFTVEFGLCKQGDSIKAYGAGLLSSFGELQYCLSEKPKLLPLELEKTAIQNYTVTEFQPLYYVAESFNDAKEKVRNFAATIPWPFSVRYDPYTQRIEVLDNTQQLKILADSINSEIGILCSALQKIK
Assay: Cell Based Phenylalanine Flux Assay
Conditions: 24 hrs with compound, then 20 μM sepiapterin and 800 μM 13C9,15N-Phenylalanine for 4 hours, 13C-Tyrosine by LC-MS, average where tested multiple times
Summary of the method: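 Stable R408W PAH A375 cells: 24 h compound pretreatment in duplicate, then 4 h with 800 μM isotope-labelled Phe and 20 μM sepiapterin. Labelled Tyr output by LC-MS; AC50 averaged where repeated.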

[1] = A375 cells expressing R408W PAH

SMILES | AC50 [1] | AC50 (A375 R408W cells)
Cc1ncoc1C(=O)N1CCc2[nH]cnc2C1c1nc2cc(F)ccc2o1 (stereo not drawn) | 1000 to 5000 nM | 
Cc1ccc2oc([C@@H]3c4nc[nH]c4CCN3C(=O)c3oc(-c4cn(C)cn4)nc3C(F)F)nc2c1 [Example 784, (S)-(4-(difluoromethyl)-2-(1-methyl-1H-imidazol-4-yl)oxazol-5-yl)(4-(5-methylbenzo[d]oxazol-2-yl)-6,7-dihydro-1H-imidazo[4,5-c]pyridin-5(4H)-yl)methanone] |  | ≤ 500 nM
Cc1ccc(-c2nnc(C(=O)N3CCc4[nH]cnc4[C@@H]3c3nc4cc(F)ccc4o3)o2)nc1 [Example 125, (R)-(4-(5-fluorobenzo[d]oxazol-2-yl)-6,7-dihydro-1H-imidazo[4,5-c]pyridin-5(4H)-yl)(5-(5-methylpyridin-2-yl)-1,3,4-oxadiazol-2-yl)methanone] |  | 1000 to 5000 nM
O=C(c1ccn(-c2ccccn2)n1)N1CCc2[nH]cnc2C1c1nc2cccc(F)c2o1 (stereo not drawn) | 1000 to 5000 nM | 
Cc1ncoc1C(=O)N1CCc2[nH]cnc2[C@@H]1c1nc2c(F)ccc(F)c2o1 [Example 808, (R)-(4-(4,7-difluorobenzo[d]oxazol-2-yl)-6,7-dihydro-1H-imidazo[4,5-c]pyridin-5(4H)-yl)(4-methyloxazol-5-yl)methanone] |  | 1000 to 5000 nM
O=C(c1cnc(N2CCC(F)CC2)o1)N1CCc2[nH]cnc2C1c1nc2cc(F)ccc2o1 (stereo not drawn) | 1000 to 5000 nM | 
CC(C)(O)c1nc(C(F)F)c(C(=O)N2CCc3[nH]cnc3[C@@H]2c2nc3c(OC(F)(F)F)cccc3o2)o1 [Example 534, (R)-(4-(difluoromethyl)-2-(2-hydroxypropan-2-yl)oxazol-5-yl)(4-(4-(trifluoromethoxy)benzo[d]oxazol-2-yl)-6,7-dihydro-1H-imidazo[4,5-c]pyridin-5(4H)-yl)methanone] |  | ≤ 500 nM
O=C(c1nnc(C2CC2)o1)N1CCc2[nH]cnc2[C@H]1c1nc2c(F)ccc(F)c2o1 [Example 855, (S)-(5-cyclopropyl-1,3,4-oxadiazol-2-yl)(4-(4,7-difluorobenzo[d]oxazol-2-yl)-6,7-dihydro-1H-imidazo[4,5-c]pyridin-5(4H)-yl)methanone] |  | ≤ 500 nM
CC(C)(CO)c1nc(C(F)F)c(C(=O)N2CCc3[nH]cnc3[C@H]2c2nc3cc(F)ccc3o2)o1 [Example 824, (S)-(4-(difluoromethyl)-2-(1-hydroxy-2-methylpropan-2-yl)oxazol-5-yl)(4-(5-fluorobenzo[d]oxazol-2-yl)-6,7-dihydro-1H-imidazo[4,5-c]pyridin-5(4H)-yl)methanone] |  | ≤ 500 nM
CNc1cn2ncc(C(=O)N3CCc4[nH]cnc4[C@H]3c3nc4cc(F)ccc4o3)c2cc1Cl [Example 205, (S)-(5-chloro-6-(methylamino)pyrazolo[1,5-a]pyridin-3-yl)(4-(5-fluorobenzo[d]oxazol-2-yl)-6,7-dihydro-1H-imidazo[4,5-c]pyridin-5(4H)-yl)methanone] |  | ≤ 500 nM
Cn1cc(-c2nnc(C(=O)N3CCc4[nH]cnc4[C@@H]3c3nc4cc(F)ccc4o3)o2)c(C(F)(F)F)n1 [Example 117, (R)-(4-(5-fluorobenzo[d]oxazol-2-yl)-6,7-dihydro-1H-imidazo[4,5-c]pyridin-5(4H)-yl)(5-(1-methyl-3-(trifluoromethyl)-1H-pyrazol-4-yl)-1,3,4-oxadiazol-2-yl)methanone] |  | 1000 to 5000 nM
CC(C)(O)c1nc(Cl)c(C(=O)N2CCc3[nH]cnc3[C@H]2c2nc3ccc(F)cc3o2)o1 [Example 269, (S)-(4-chloro-2-(2-hydroxypropan-2-yl)oxazol-5-yl)(4-(6-fluorobenzo[d]oxazol-2-yl)-6,7-dihydro-1H-imidazo[4,5-c]pyridin-5(4H)-yl)methanone] |  | 500 to 1000 nM
C[C@H](O)c1nc(C(F)F)c(C(=O)N2CCc3[nH]cnc3[C@H]2c2nc3c(F)cccc3o2)o1 [Example 227, (4-(difluoromethyl)-2-((S)-1-hydroxyethyl)oxazol-5-yl)((S)-4-(4-fluorobenzo[d]oxazol-2-yl)-6,7-dihydro-1H-imidazo[4,5-c]pyridin-5(4H)-yl)methanone] |  | ≤ 500 nM
Cn1ccc(-c2nnc(C(=O)N3CCc4[nH]cnc4[C@@H]3c3nc4cccc(C(F)(F)F)c4o3)o2)n1 [Example 831, (R)-(5-(1-methyl-1H-pyrazol-3-yl)-1,3,4-oxadiazol-2-yl)(4-(7-(trifluoromethyl)benzo[d]oxazol-2-yl)-6,7-dihydro-1H-imidazo[4,5-c]pyridin-5(4H)-yl)methanone] |  | 500 to 1000 nM
Cc1cc(C(=O)N2CCc3[nH]cnc3[C@H]2c2nc3cccc(C)c3o2)n(C)n1 [Example 781, (S)-(1,3-dimethyl-1H-pyrazol-5-yl)(4-(7-methylbenzo[d]oxazol-2-yl)-6,7-dihydro-1H-imidazo[4,5-c]pyridin-5(4H)-yl)methanone] |  | ≤ 500 nM
Cc1cccc2oc([C@@H]3c4nc[nH]c4CCN3C(=O)c3oc(C(C)(C)O)nc3C(F)F)nc12 [Example 361, (S)-(4-(difluoromethyl)-2-(2-hydroxypropan-2-yl)oxazol-5-yl)(4-(4-methylbenzo[d]oxazol-2-yl)-6,7-dihydro-1H-imidazo[4,5-c]pyridin-5(4H)-yl)methanone] |  | ≤ 500 nM
O=C(c1nnc(-c2cnn(CC(F)F)c2)o1)N1CCc2[nH]cnc2C1c1nc2cc(F)ccc2o1 (stereo not drawn) | 1000 to 5000 nM | 

SMILES | AC50 [1] | AC50 (A375 R408W cells)
COc1cccc2nc(C3c4nc[nH]c4CCN3C(=O)c3ccnn3-c3ccccn3)oc12 (stereo not drawn) | 1000 to 5000 nM | 
Cc1ccc2oc([C@@H]3c4nc[nH]c4CCN3C(=O)c3ocnc3C(F)F)nc2c1 [Example 137, (S)-(4-(difluoromethyl)oxazol-5-yl)(4-(5-methylbenzo[d]oxazol-2-yl)-6,7-dihydro-1H-imidazo[4,5-c]pyridin-5(4H)-yl)methanone] |  | ≤ 500 nM
Cn1ncnc1C(=O)N1CCc2[nH]cnc2C1c1nc2c(F)cccc2o1 (stereo not drawn) | 1000 to 5000 nM | 
O=C(c1nnc(-c2ncccn2)o1)N1CCc2[nH]cnc2C1c1nc2cc(F)ccc2o1 (stereo not drawn) | 1000 to 5000 nM | 
O=C(Cc1cnn2ccccc12)N1CCc2[nH]cnc2C1c1nc2cc(F)ccc2o1 (stereo not drawn) | 1000 to 5000 nM | 
Cn1ccc(-c2nc(C(F)(F)F)c(C(=O)N3CCc4[nH]cnc4[C@@H]3c3nc4cc(F)ccc4o3)o2)n1 [Example 788, (R)-(4-(5-fluorobenzo[d]oxazol-2-yl)-6,7-dihydro-1H-imidazo[4,5-c]pyridin-5(4H)-yl)(2-(1-methyl-1H-pyrazol-3-yl)-4-(trifluoromethyl)oxazol-5-yl)methanone] |  | 1000 to 5000 nM
Cc1c(F)ccc2oc([C@@H]3c4nc[nH]c4CCN3C(=O)c3ocnc3C(F)F)nc12 [Example 722, (S)-(4-(difluoromethyl)oxazol-5-yl)(4-(5-fluoro-4-methylbenzo[d]oxazol-2-yl)-6,7-dihydro-1H-imidazo[4,5-c]pyridin-5(4H)-yl)methanone] |  | ≤ 500 nM
O=C(c1cnn2cc(Br)ccc12)N1CCc2[nH]cnc2[C@H]1c1nc2cc(F)ccc2o1 [Example 69, (S)-(6-bromopyrazolo[1,5-a]pyridin-3-yl)(4-(5-fluorobenzo[d]oxazol-2-yl)-6,7-dihydro-1H-imidazo[4,5-c]pyridin-5(4H)-yl)methanone] |  | 500 to 1000 nM
Cc1ncoc1C(=O)N1CC2(CC2)c2[nH]cnc2C1c1nc2cc(F)ccc2o1 (stereo not drawn) | 1000 to 5000 nM | 
O=C(c1ccnn1C(F)F)N1CCc2[nH]cnc2C1c1nc2c(F)c(F)ccc2o1 (stereo not drawn) | 1000 to 5000 nM | 
CN(C)Cc1cn2ncc(C(=O)N3CCc4[nH]cnc4[C@@H]3c3nc4cc(F)ccc4o3)c2cc1Cl [Example 204, (R)-(5-chloro-6-((dimethylamino)methyl)pyrazolo[1,5-a]pyridin-3-yl)(4-(5-fluorobenzo[d]oxazol-2-yl)-6,7-dihydro-1H-imidazo[4,5-c]pyridin-5(4H)-yl)methanonee] |  | 1000 to 5000 nM
CN(C)c1cn2ncc(C(=O)N3CCc4[nH]cnc4[C@H]3c3nc4cc(F)ccc4o3)c2cc1Cl [Example 207, (S)-(5-chloro-6-(dimethylamino)pyrazolo[1,5-a]pyridin-3-yl)(4-(5-fluorobenzo[d]oxazol-2-yl)-6,7-dihydro-1H-imidazo[4,5-c]pyridin-5(4H)-yl)methanone] |  | ≤ 500 nM
Cn1ccc(-c2nnc(C(=O)N3CCc4[nH]cnc4[C@@H]3c3nc4c(F)cccc4o3)o2)n1 [Example 380, (R)-(4-(4-fluorobenzo[d]oxazol-2-yl)-1,4,6,7-tetrahydro-5H-imidazo[4,5-c]pyridin-5-yl)(5-(1-methyl-1H-pyrazol-3-yl)-1,3,4-oxadiazol-2-yl)methanone] |  | 500 to 1000 nM
Cc1nc(N2CCC(F)CC2)oc1C(=O)N1CCc2[nH]cnc2C1c1nc2cc(F)ccc2o1 (stereo not drawn) | 1000 to 5000 nM | 
O=C(c1ocnc1C(F)(F)F)N1Cc2[nH]cnc2[C@@H]1c1nc2ccccc2o1 [Example 943, (R)-(4-(benzo[d]oxazol-2-yl)-4,6-dihydropyrrolo[3,4-d]imidazol-5(1H)-yl)(4-(trifluoromethyl)oxazol-5-yl)methanone] |  | 1000 to 5000 nM
Cc1ccc2nc([C@H]3c4nc[nH]c4CCN3C(=O)c3nnc(-c4ccn(C(F)F)n4)o3)oc2c1 [Example 704, (R)-(5-(1-(difluoromethyl)-1H-pyrazol-3-yl)-1,3,4-oxadiazol-2-yl)(4-(6-methylbenzo[d]oxazol-2-yl)-6,7-dihydro-1H-imidazo[4,5-c]pyridin-5(4H)-yl)methanone] |  | 1000 to 5000 nM
